From patent US20240181022A1, “AMURINS LYSINS, AND LYSIN-ANTIMICROBIAL PEPTIDE (AMP) CONSTRUCTS ACTIVE AGAINST GRAM-NEGATIVE BACTERIA” (priority 2021, published 2024)
Values joined by “and” are separate entries in the source; they are usually repeats but may differ in a detail not shown here. Identical values can stand only once. Where no end group is shown, it is not given here. [ ]: non-standard residue; d: D form.

What was measured:
[1] = tested on: P. aeruginosa; experiment: Checkerboard synergy assay (FICI) with antibiotics against P. aeruginosa; type: cell-based, Pseudomonas aeruginosa; details: for Antibiotic MIC (single agent): P. aeruginosa strain AR-769; for Antibiotic FIC / Antibiotic MIC (combo): P. aeruginosa strain AR-769, in combination with GN370; for Antibiotic MIC (combo): in µg/mL
Procedure: Any known method to assess MIC may be used.
Checkerboards are constructed by first preparing columns of e.g., a 96-well polypropylene microtiter plate, wherein each well has the same amount of antibiotic diluted 2-fold along the horizontal axis. […] Bacteria are added to the drug combinations at concentrations of 1×10^5 […] in CAA, for example, with or without human serum or pulmonary surfactant. […] Summation fractional inhibitory concentrations (ΣFICs) are calculated for each drug and the minimum ΣFIC value (ΣFICmin) is used to determine the effect of the Chp peptide/antibiotic combination.
The synergy of GN370 with meropenem was evaluated against 3 different strains of P. aeruginosa and three different strains of B. cenocepacia.
GN370 was further tested in combination with up to seven additional antibiotics (in addition to meropenem) against a variety of bacterial strains, including P. aeruginosa, A. baumannii, E. coli, E. cloacae, and K. pneumoniae. GN370 and the subject antibiotics were tested in a checkerboard assay format, and FICI values were determined, wherein ≤0.5 indicates synergy, >0.5-≤1 indicates additive; and >1 indicates indifferent.

[2] = tested on: M. kansasii; experiment: MIC against M. kansasii; type: cell-based, Mycobacterium kansasii; details: M. kansasi (ATCC 12478); CAAT media
[3] = tested on: M. scrofulaceum; experiment: MIC against M. scrofulaceum; type: cell-based, Mycobacterium scrofulaceum; details: M. scrofulaceum (ATCC 19981); CAAT media
[4] = tested on: M. fortuitum; experiment: MIC against M. fortuitum; type: cell-based, Mycobacterium fortuitum; details: M. fortuitum (ATCC 6841); CAAT media
[5] = tested on: M. tuberculosis; type: cell-based, Mycobacterium tuberculosis; details: M. tuberculosis (ATCC 35817); (ADC, T) media
[6] = tested on: M. intracellulare; experiment: MIC against M. intracellulare; type: cell-based, Mycobacterium intracellulare; details: M. intracellulare (ATCC 13950); CAAT media
[7] = tested on: M. smegmatis; experiment: MIC against M. smegmatis; type: cell-based, Mycobacterium smegmatis; details: M. smegmatis (MC 155); CAAT media
[8] = tested on: M. avium; experiment: MIC against M. avium; type: cell-based, Mycobacterium avium; details: M. avium (ATCC 700898); CAAT media

| Molecule | Antibiotic MIC (single agent) [1] [µg/mL] | Antibiotic FIC [1] | Antibiotic MIC (combo) [1] | MIC [2] [µg/mL] | MIC [3] [µg/mL] | MIC [4] [µg/mL] | MIC [5] [µg/mL] | MIC [6] [µg/mL] | MIC [7] [µg/mL] | MIC [8] [Tg/mL] |
| --- | --- | --- | --- | --- | --- | --- | --- | --- | --- | --- |
| CO/N=C(\C(=O)N[C@@H]1C(=O)N2C(C(=O)[O-])=C(C[N+]3(C)CCCC3)CS[C@H]12)c1csc(N)n1 [Cefepime] | 256 | 0.25 and 0.125 | 64 and 32 |  |  |  |  |  |  |  |
| CC(C)(O/N=C(\C(=O)N[C@@H]1C(=O)N2C(C(=O)[O-])=C(C[n+]3ccccc3)CS[C@H]12)c1csc(N)n1)C(=O)O [Ceftazidime] | 512 | 1 | 512 |  |  |  |  |  |  |  |
| AGT915: SEQ ID NO: 63, Marine gokushovirus (MRRYNVNKGKSAKKFRKQVSKTKVANLRSNPMRGGWRL; listed as Marine gokushovirus) |  |  |  | 1 | >64 | 1 | 4 | >64 | 1 | >64 |
| ALCES1: SEQ ID NO: 59, Alces alces faeces associated microvirus (MAKKIRNKARDRRIFTRTASRMHKANRTPRFMRGGIRL; Alces alces faeces associated microvirus MP12 5423) |  |  |  | 2 | 2 | 4 | 8 | 2 | 2 | 8 |
| AVQ206: SEQ ID NO: 60, Gokushovirinae environmental samples (MRRKKMSRGKSKKLFRRTAKRVHRKNLRARPMRGGIRM) |  |  |  | 2 | 4 | 2 | 8 | 4 | 16 | 1 |
| Chp1: Chp peptide, SEQ ID NO: 1, Phage Chp1 (MVRRRRLRRRISRRIFRRTVARVGRRRRSFRGGIRF; Chlamydia virus Chp1) |  |  |  | 4 | 4 | 16 | 32 | 4 | 16 | 4 |
| Chp4: Chp peptide, SEQ ID NO: 4, Phage 4 (MARRYRLSRRRSRRLFSRTALRMHRRNRLRRIMRGGIRF; Chlamydia phage 4) |  |  |  | >0.125 | 2 | 4 | 16 | 1 | 4 | 1 |
| Chp8: Chp peptide, SEQ ID NO: 8 (MSKKRSRMSRRRSKKLFSKTALRTKSVNTRPPMRGGFRF; listed as Chlamydia trachomatis) |  |  |  | 4 | 4 | 2 | 8 | 4 | 8 | 8 |
| Chp9: Chp peptide, SEQ ID NO: 9 (MSLRRHKLSRKASKRIFRKGASRTKTLNTRATPMRGGFRI; listed as Chlamydia trachomatis) |  |  |  | 8 | 8 | 4 | 8 | 4 | 8 | >64 |
| Chp10: Chp peptide, SEQ ID NO: 10 (MKRRKLSKKKSRKIFTRGAVNVKKRNLRARPMRGGFRI; listed as Chlamydia trachomatis) |  |  |  | 4 | 0.5 | 1 | 8 | 0.5 | 1 | 0.5 |
| Ecp2: SEQ ID NO: 18, hypothetical protein (E. coli) (MARSRRRMSKRSSRRSFRKYAKSHKKNFKARSMRGGIRL; listed as Escherichia coli) |  |  |  | 2 | 4 | 4 | 4 | 8 | 8 | 2 |
| Ecp3-M1: Modified variant of Ecp3, SEQ ID NO: 100 (MA[dR]S[dR][dR][dR]MS[dK][dR]SS[dR][dR]SF[dR][dK]YA[dK]TH[dK][dK]NF[dK]A[dR]SM[dR]GGI[dR]L) |  |  |  | 2 | 2 | 8 | 8 | 8 | 1 | 0.5 |
| Ecp3: SEQ ID NO: 55, nonstructural protein (Escherichia) (MARSRRRMSKRSSRRSFRKYAKTHKKNFKARSMRGGIRL; listed as Escherichia sp.) |  |  |  | 2 | 2 | 2 | 8 | 8 | 8 | 1 |
| Fen7875: SEQ ID NO: 65, Gokushovirinae Fen7875_21 (MKPLKRKPVQKARSAAKFRRNVSTVKAANMAVKPMRGGWRF) |  |  |  | 32 | 16 | 8 | 4 | 8 | 16 | 2 |
| Gkh1: SEQ ID NO: 13, Marine gokushovirus (MRRPRKMNYKKSKRMFSRTAARTHRKNSLRGSRPMRGGIRL; listed as Marine gokushovirus) |  |  |  | 2 | 8 | 1 | 8 | 4 | 4 | 4 |
| HH3930: SEQ ID NO: 64, Richelia intracellularis HH01 (MRPVKRSRVNKARSAGKFRKQVGKTKMANLRSNPMRGGWRL) |  |  |  | 32 | 16 | 8 | 4 | 16 | 16 | 4 |
| Spi1: SEQ ID NO: 25, Spiroplasma virus SpV4 Orf9 (MAYRGFKTSRVVKHRVRRRWFNHRRRYR; Spiroplasma virus SpV4) |  |  |  | 0.5 | 2 | 8 | 16 | 4 | 16 | >64 |
| Spi2-M1: Modified variant of Spi2, SEQ ID NO: 99 (M[dR][dR][dK]V[dK]NT[dK][dR]HQW[dR]LTHSA[dR]SI[dK][dR]ANIMPSNP[dR]GG[dR][dR]) |  |  |  | 4 | 16 | 4 | 8 | >64 | 1 | >64 |
| Spi2: SEQ ID: 26, Spiroplasma virus SpV4 Orf8 (MRRKVKNTKRHQWRLTHSARSIKRANIMPSNPRGGRRF; Spiroplasma virus SpV4) |  |  |  | 1 | 8 | 4 | 16 | >64 | 4 | >64 |
| Unp1: SEQ ID NO: 15, unnamed protein product (uncultured bacterium) (MKMRKRTDKRVFTRTAAKSKKVNIAPKIFRGGIRL) |  |  |  | 8 | 8 | 8 | 4 | 32 | 2 | 1 |
| Unp2: SEQ ID NO: 20, unnamed protein product (MRRRRLSRRTSRRFFRKGLKVRRRNLRARPMRGGFRI) |  |  |  | 2 | 4 | 2 | 8 | 1 | 4 | 0.5 |
| Unp3-M1: Modified variant of Unp3, SEQ ID NO: 98 (MA[dR][dR][dK][dK]M[dK]G[dK][dR]D[dK][dR]VF[dK]QTAN[dK]T[dK]AINISP[dK]NM[dR]GGT[dR]L) |  |  |  | 16 | 8 | 4 | 4 | >64 | 8 | 8 |
| Unp4: SEQ ID NO: 94, Marine gokushovirus (MIVRRHKMSRRRSRKLFSKTASRTRSKNLRSRPMRGGYRI; listed as Marine gokushovirus) |  |  |  | 4 | 4 | 4 | 16 | 4 | 16 | 1 |
